In PubChem BioAssay (NCI) one finds GI50 and TGI data, which are given here for seven compounds.

Holding throughout (test): NCI anticancer screen, dose series, 48 h
Experiment [1] deals with SK-OV-3 ovarian.
The test system of experiment [2] is NCI-H460 lung.
The test system of experiment [3] is OVCAR-8 ovarian.
For experiment [4], the system named is MALME-3M melanoma.
Experiment [5] relates to A549 NSCLC.
For experiment [6], the system named is M14 melanoma.
Experiment [7] has as its system SNB-75 CNS.
Experiment [8] concerns EKVX NSCLC.
Experiment [9] concerns HCC-2998 colon.
In experiment [10] the test system is SNB-19 CNS.

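A five-concentration, 48-hour dose response in 96-well plates underlies each endpoint, interpolated linearly between surrounding concentrations. GI50 marks 50% less growth. TGI denotes the concentration required for complete inhibition of growth.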

For the compound `COc1cc2c(c(OC)c1)C1c3ccccc3NC(=O)N1CC2` (stereo not given), the GI50 in experiment [1] was 3.67 µM; in experiment [2], 3.7 µM; in experiment [3], 5.01 µM; in experiment [4] it was 10.4 µM; in experiment [5], 4.59 µM; in [6], 1.97 µM. Also, the GI50 in experiment [7] is 2.69 µM; in experiment [8] it was 4.79 µM; in [9], 3.31 µM; in experiment [10], 7 µM. For the same compound, the TGI in experiment [1] is above 100 µM; in experiment [2], above 100 µM; in experiment [3] it was above 100 µM; in experiment [4], 67.8 µM; in experiment [5], above 100 µM; in experiment [6], 21.4 µM. Besides, the TGI in [7], in experiment [8], in experiment [9] and in experiment [10] was above 100 µM throughout.

Regarding `COc1ccc(-c2csc(N(C(=O)N3CCN(c4cc5c(cc4F)c(=O)c(C(=O)O)cn5C4CC4)CC3)c3ccccc3)n2)cc1`, the GI50 in experiment [1] is 2.49 µM; in experiment [2], 3.12 µM; in experiment [3], 2.82 µM; in experiment [4], 2.64 µM; in experiment [5], 3.01 µM; in experiment [6] it was 3.7 µM. For the same compound, the GI50 in experiment [7] is 0.812 µM; in experiment [8], 3.3 µM; in experiment [9] it was 4.13 µM; in [10] it was 1.11 µM. Besides, the TGI was 7.83 µM in experiment [1]; above 100 µM in experiment [2]; above 100 µM in experiment [3]; 7.54 µM in [4]; 12.1 µM in [5]; above 100 µM in experiment [6]. Moreover, the TGI in experiment [7] is above 25.9 µM; in experiment [8], above 100 µM; in experiment [9], above 100 µM; in experiment [10], above 100 µM.

`Nc1ccccc1C#C/C=C\C#Cc1cccs1`: the GI50 in experiment [1] was 26.5 µM; in experiment [2], 13.7 µM; in experiment [3], 25 µM; in experiment [4], 5.38 µM; in [5] it was 10.4 µM; in experiment [6], 10.5 µM. The GI50 was 16.8 µM in [7], 12.7 µM in experiment [8], 4.17 µM in [9] and 43.5 µM in experiment [10]. Besides, the TGI in experiment [1] is above 52.3 µM; in experiment [2] it was 42.5 µM; in [3], above 83.4 µM; in experiment [4] it was 29.2 µM; in experiment [5], above 42.5 µM; in experiment [6], 30.9 µM. Besides, the TGI in [7] is 61.9 µM; in experiment [8], 35.1 µM; in experiment [9], 19.3 µM; in experiment [10], above 100 µM.

For the compound `COC(=O)[C@@]1(C)CC[C@]2(C)CC[C@]3(C)C4=CC=C5C(=CC(=O)C(O)=C5C)[C@]4(C)[C@@H](O)C[C@@]3(C)[C@@H]2C1`, the GI50 in experiment [1] was 19.1 µM; in [2], 13.4 µM; in experiment [3], 14.8 µM; in experiment [4], 4.91 µM; in [5], 15.9 µM; in [6] it was 9.74 µM. Besides, the GI50 in experiment [7] is 11.6 µM; in [8], 12.9 µM; in experiment [9], 13 µM; in [10], 12.4 µM. For the same compound, the TGI stood at 42.2 µM in experiment [1]; 25.5 µM in experiment [2]; 28.4 µM in experiment [3]; 16.2 µM in [4]; 30.1 µM in [5]; 22.2 µM in experiment [6]. Further, the TGI in [7] was determined as 26 µM; in experiment [8], 25.2 µM; in [9], 25.2 µM; in [10] it was 23.8 µM.

In the case of `Cc1ccc(C(=O)c2nnc(C(=O)c3ccc(C)cc3)nn2)cc1`, the TGI was 36.8 µM in experiment [1]; 33.8 µM in experiment [2]; above 100 µM in experiment [3]; above 100 µM in experiment [4]; above 100 µM in experiment [5]; 56.3 µM in [6]. The TGI in experiment [7], in experiment [8], in [9] and in experiment [10] was above 100 µM each time.

`O=C1c2cccnc2C(=O)c2nc3cc(N4CCN(C5CC5)CC4)ccc3nc21`: the GI50 in experiment [1] was 0.648 µM; in experiment [2], 0.137 µM; in experiment [3], 1.68 µM; in experiment [4], 0.178 µM; in experiment [5], 0.213 µM; in [6] it was 0.301 µM. In addition, the GI50 in experiment [7] was 0.147 µM; in experiment [8], 1.68 µM; in experiment [9], 0.49 µM; in experiment [10], 0.465 µM. In addition, the TGI in experiment [1] worked out at 2.89 µM; in experiment [2] it was 0.352 µM; in [3] it was 11.2 µM; in experiment [4] it was 0.457 µM; in experiment [5], 0.669 µM; in experiment [6], 1.18 µM. For the same compound, the TGI was found to be 1.37 µM in experiment [7], 4.02 µM in experiment [8], 1.83 µM in [9] and 3.63 µM in experiment [10].

As to `CN(C)CCNc1c2c(c(NCCN(C)C)c3[nH]ccc13)C(=O)c1ccccc1C2=O`, the GI50 in experiment [1] was 5.57 µM; in experiment [2], 0.462 µM; in experiment [3], 0.532 µM; in experiment [4], 3.3 µM; in experiment [5], 0.748 µM; in [6], 3.68 µM. Further, the GI50 is 2.75 µM in experiment [7], 0.903 µM in experiment [8], 0.393 µM in experiment [9] and 0.93 µM in experiment [10]. Also, the TGI in [1] amounted to 17.7 µM; in experiment [2], 2.87 µM; in experiment [3], 9.21 µM; in experiment [4], 11.9 µM; in experiment [5] it was 13.3 µM; in [6], 29.9 µM. In addition, the TGI in experiment [7] stood at 30.6 µM; in [8] it was 2.65 µM; in experiment [9], 3.28 µM; in experiment [10], 12.1 µM.
